One data set is described as follows: physchem. As to conditions: aqueous with cosolvent or surfactant or cyclodextrin, kinetic from dmso stock, solubility 5% DMSO in PBS.
A short description of another data set: in vitro. As to conditions: human, HepG2 CC50, HepG2, 48 h, MTT.
Data set [1] has as its target T1, MtbIspE (Mycobacterium tuberculosis, UniProt P9WKG7). Briefly: target-directed dynamic combinatorial chemistry (tdDCC), amplification of acylhydrazones in protein-templated vs blank DCL (HPLC-MS/MS, UV 310 nm). It is filed as binding. As to conditions: for Amplification factors (DCL-4): DCL-4, 24 h; for Amplification factors (DCL-4) / Amplification factors (DCL-3): 40 mol % MtbIspE; for Amplification factors (DCL-3): DCL-3, 24 h, I1 and K1 integrated as one cluster. As for the experimental part: In this study, we used MtbIspE as target protein and the reversible reaction of hydrazides and aldehydes to form dynamic combinatorial libraries (DCLs) of acylhydrazones. […] To accelerate the reaction at neutral pH, aniline was used as nucleophilic catalyst activating the aldehydes.[2],[4],[19] We analyzed the protein’s effect on the DCLs by comparing HPLC-MS/MS data of blank vs protein-templated (PT) experiments. The experiments spanned 3 days, with periodic sampling (every 2 h, followed by two samples per day after 8 h). The addition of NaOH to raise the pH and halt the reactions ensured the sample composition was preserved for analysis.[19] Templated experiments were conducted in duplicate, and the protein was denatured and removed prior to HPLC-MS/MS analysis.
The tdDCC hits and thus potential MtbIspE binders are amplified in the PT experiment compared to the blank experiment. The first step in the analysis of DCLs is the determination of the equilibrium since the amplification factors need to be calculated when the concentration of products is stable. To determine the evolution of the possible products, it is important to measure the characteristic UV absorbance of the acylhydrazones linker (310 nm) during the HPLC-MS/MS run. The resulting UV peaks are assigned to each product using the MS data (Figures S3–S6). The sum of all peak areas is normalized to 100% in order to obtain the respective relative peak area (RPA) for each product. The RPA values represent relative concentrations, determined at each time point of the blank experiment until the values stabilize. […] However, the rest of the compounds are out of range, making a visual inspection difficult. […] The other three libraries behaved in the same way, reaching equilibrium within 24 h and also maintained stable concentrations beyond (Figures S7–S9). To determine the tdDCC hits, we compared the RPAs of the PT experiments to the blanks at 24 h and set a threshold of at least 50% increase in compound formation. In total, 11 acylhydrazones passed our criteria, with amplification factors ranging from […] to 15.5, qualifying them for resynthesis and further evaluation (Figure 3). During the analysis of chromatograms, challenges arose concerning product identification. Some compound peaks were not neatly separated, forcing us to consider them in clusters, others presented two peaks, likely due to isomers, and were considered separately in our evaluation. Lastly, some compounds were detected by MS, but their respective UV signal interfered with the injection peak or was too low for integration (<1%), both in the blank and PT experiments. Consequently, we excluded these compounds from the analysis (Figure S3–S6).
To a well of a 24-well plate, containing Tris buffer (pH 7.0) were added hydrazides (300 μM each, in DMSO), aldehydes (100 μM each, in DMSO), aniline (20 mM, in DMSO), the protein MtbIspE (25 or 40 μM in Tris buffer at pH 7.0), and an additional amount of DMSO to reach a final concentration of 5% in the DCL with 0.5 mL of end-volume. The DCL was allowed to mix on a plate shaker at room temperature and was frequently monitored via LCMS-MS. For analysis, 30 μL of the corresponding library was mixed with 42 μL acetonitrile and 3 μL of NaOH (1 M), the mixture was centrifuged, and the supernatant was used for the analysis. PT experiments were run in duplicates and the protein was omitted for the blank experiments.
High-resolution mass (HRMS) of final products was determined by HPLC-MS/MS using a Thermo Scientific Q Exactive Focus Orbitrap LC -MS/MS system. All compounds were analyzed for purity by LCMS on Acquity UPLC-SQD system from Waters with a gradient elution of Water (Formic acid 0.1%)/Acetonitrile on an HSS - T3 column (2.1 x 50 mm, Waters), 1.8 µm, at 30°C, PDA detection between 240 -320 nm, and MS detection by simultaneous ES+/ES- ionization in a mass range of 150 -800. The flow is set to 0.9 ml/min, and the […]
gradient time is 1.5 min. […]

Data set [2] has as its target T1, MtbIspE. Briefly: MtbIspE binding study via MicroScale Thermophoresis (MST). The settings on record: MST, 20 μM ligand, 200 nM MtbIspE, triplicate; qualitative. (In general: Microscale thermophoresis detects binding through changes in fluorescence in a small temperature gradient.)
Another data set deals with EcTolC. Briefly: microbe, parasite or virus in culture. The data set is classed as cell-based. The settings on record: Escherichia coli, 18 h, LB medium, read-out: EcTolC %inh. At 50 μM.
The nature of data set [3]: solubility in M. tuberculosis 7H9 growth medium. The data set is classed as physicochemical. The settings on record: Mtb 7H9 growth medium; for solubility: M. tuberculosis 7H9 growth medium, plasma or biological fluid, kinetic from dmso stock. As for the experimental part: Prior to biological evaluation of the tdDCC hits, we tested their solubility in a standard buffer as well as in M. tuberculosis 7H9 growth medium. […] Regrettably, with 3.3 μM the least soluble compound is E1, making our most amplified and promising compound unsuitable for biological evaluation. We assessed the solubility in Mtb growth medium given that it is a complex, nutrient-rich environment with a distinct solubility profile. However, the trend continued, only seven hits are soluble at 8 μM or above, the remaining five compounds, including E1, were not eligible for antitubercular activity testing (Table 1).
Determination of in vitro anti-tubercular activity and solubility in 7H9 medium Anti-tubercular tests were performed as previously described .1 In brief, 7H9 complete medium (BD Difco; Becton Dickinson, Maryland,USA) supplemented with 10% OADC (BD), 0.2% glycerol, and 0.05% Tween80 as previously described ,3 was used to culture Mycobacterium tuberculosis (Mtb) strain H37Rv (ATCC 25618) carrying a mCherry -expressing plasmid (pCherry10 ).4 Cultures were harvested at mid-log phase and frozen in aliquots at – 80 °C. Prior to testing aliquots were thawed followed by centrifugation and the pellet was resuspended in 7H9 medium with 10% OADC (without glycerol and Tween80). This was further thoroughly resuspended by passing it through a syringe with a 26 -gauge needle to avoid clumping of the bacteria. 2×10^5 CFU (colony forming units) were then cultured in a total volume of 100 μl culture medium (triplicates) to test the non-precipitating compounds for the anti-tubercular activity at the concentrations indicated. For these assays, 96-well flat clear bottom black polystyrene microplates (Corning® CellBIND®, Merck, New York, USA) wer e used. Each plate had Rifampicin (at 1 μg/ml and 0.1 μg/ml) (National Reference Center, Borstel) as a reference compound. Plates were sealed with an air -permeable membrane (Porvair Sciences, Wrexham, UK) in a 37 °C incubator with mild agitation (TiMix5, Edmund Bühler, Germany). The activity of compounds was determined after 7 days by measuring the bacterial growth as relative light units (RLU) from the fluorescence intensity obtained at an excitation wavelength of 575 nm and an emission wavelength of 635 n m in a microplate reader (Synergy 2, BioTek Instruments, Vermont, USA). Two independent experiments (each in triplicates) were performed, and all values were normalized to untreated control sample (100%) in each experiment.
To obtain information regarding the toxicity of our compounds, their impact on the viability of human cells was investigated. HepG2 cells (2x10^4 cells per well) were seeded in 96 -well, flat-bottomed culture plates in 100 µL culture medium (DMEM containing 10% fetal calve serum, 1% penicillin -streptomycin). Twenty-four hours after seeding the cells, medium was removed and replaced by medium containing test compounds in a final DMSO concentration of 1%. Compounds were tested in duplicates at a single concentration or, for CC50 determination, at 8 concentrations that were prepared via 2 -fold serial dilutions in 1% DMSO/medium. Epirubicin and doxorubicin were used as positive controls in serial dilutions starting from 10 µM, and rifampicin was used as a negative control (at 100 µM). The living cell mass was determined 48 h after treatment with compounds by adding 0.1 volumes of 3 -(4,5-dimethylthiazol-2-yl)-2,5-diphenyltetrazolium bromide (MTT) solution (5 mg/mL sterile PBS) (Sigma, St. Louis, MO) to the wells. After incubating the cells for 30 min at 37 °C (atmosphere containing 5% CO2), medium was removed and MTT crystals were dissolved in 75 µL of a solution containing 10% SDS and 0.5% acetic acid in DMSO. The optical density (OD) of the samples was determined photometrically at 570 nm in a PHERAstar Omega plate reader (BMG labtech, Ortenberg, Germany). To obtain percent viability for each sample, their ODs were related to those of DMSO controls. […]

For data set [4], the target named is T1, MtbIspE. Briefly: MtbIspE binding study via thermal shift assay. The settings on record: read-out: MtbIspE ΔTm at 20 μM.
A further data set relates to MtbH37Rv. The data set is classed as cell-based, Mycobacterium tuberculosis.
A further data set deals with EcK12. Briefly: E. coli growth inhibition, wild-type strain K12. The data set is classed as cell-based, Escherichia coli. As to conditions: Escherichia coli, 18 h, LB medium, read-out: EcK12 %inh. At 50 μM.

The values that follow come from paper PMC11391541, “Target-Directed Dynamic Combinatorial Chemistry Affords Binders of Mycobacterium tuberculosis IspE” (ACS Omega, 2024).

In brackets after ≈: the same amount, converted by molar mass. Several values for one entry are separate records, joined by “and”; a condition that tells them apart may be missing. Equal values may be shown once. Where only a bound is given, the exact number is not on record here.

T1 sequence (P9WKG7 whole entry): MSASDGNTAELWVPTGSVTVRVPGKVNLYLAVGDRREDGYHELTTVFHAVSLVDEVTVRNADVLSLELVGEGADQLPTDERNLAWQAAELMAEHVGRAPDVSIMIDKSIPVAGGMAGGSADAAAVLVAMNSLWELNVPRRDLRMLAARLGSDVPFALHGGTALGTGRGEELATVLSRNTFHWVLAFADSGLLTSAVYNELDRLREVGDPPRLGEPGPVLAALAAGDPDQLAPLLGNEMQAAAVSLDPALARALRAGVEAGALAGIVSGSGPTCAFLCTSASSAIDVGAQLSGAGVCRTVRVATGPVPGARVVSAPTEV

In turn, `COc1ccc(-c2cc(/C=N/NC(=O)Cn3nc(C)cc3C)no2)cc1` [B6, (E)-2-(3,5-Dimethyl-1H-pyrazol-1-yl)-N′-((5-(4-methoxyphenyl)isoxazol-3-yl)methylene)acetohydrazide] gave a solubility at 5 min in the data set “physchem” of 65 ± 35 µM (≈ 23 µg/mL). This molecule gave a CC50 in the data set “in vitro” of more than 50 µM. For the same molecule, the “Amplification factors (DCL-4)” value on MtbIspE [1] was 0.9. Besides, the “MtbIspE binding at 20 μM” value on MtbIspE [2] was “bound in two out of three measurements and 2/3”. Further, in the data set on EcTolC, the inhibition at 50 µM is less than 10%. Moreover, the solubility in data set [3] worked out at 16 µM. The ΔTm at 20 µM on MtbIspE [4] was less than 0.3 °C. In addition, the “MtbH37Rv MIC90” value in the data set on MtbH37Rv is on record as “no inh. at max. sol”.

In turn, `Nc1c(C(=O)N/N=C/c2cc(Cl)ccc2O)nnn1-c1cccc(C(F)(F)F)c1` [E1, (E)-5-Amino-N′-(5-chloro-2-hydroxybenzylidene)-1-(3-(trifluoromethyl)phenyl)-1H-1,2,3-triazole-4-carbohydrazide] returned a solubility at 5 min in the data set “physchem” of 3.3 ± 1 µM (≈ 1.4 µg/mL). The CC50 in “in vitro” is more than 50 µM. At MtbIspE [1] (DCL-1, 24 h, 25 mol % MtbIspE), the “amplification factor (DCL-1 at 24 h)” value is 0.5. Moreover, the inhibition at 50 µM with EcTolC is less than 10%. Further, the “solubility in 7H9” value in data set [3] is on record as “insoluble”.

The molecule `Nc1c(C(=O)N/N=C/c2ccc(C(F)(F)F)cc2)nnn1-c1cccc(C(F)(F)F)c1` [E4, (E)-5-Amino-N′-(4-(trifluoromethyl)benzylidene)-1-(3-(trifluoromethyl)phenyl)-1H-1,2,3-triazole-4-carbohydrazide] came in with a solubility at 5 min in the data set “physchem” of 12 ± 6 µM (≈ 5.31 µg/mL). Further, the CC50 in the data set “in vitro” is more than 50 µM. Besides, the “Amplification factors (DCL-4)” value on MtbIspE [1] is 0.7. On MtbIspE [2], the “MtbIspE binding at 20 μM” value is “consistently demonstrated binding across all measurements and Yes”. Further, the inhibition at 50 µM with EcTolC was less than 10%. Further, the “solubility in 7H9” value in data set [3] was “insoluble”.

Consider `COc1ccc(-c2cc(/C=N/NC(=O)c3nnn(-c4cccc(C(F)(F)F)c4)c3N)no2)cc1` [E6, (E)-5-Amino-N′-((5-(4-methoxyphenyl)isoxazol-3-yl)methylene)-1-(3-(trifluoromethyl)phenyl)-1H-1,2,3-triazole-4-carbohydrazide], for which, in “physchem”, the concentration in solution (solubility at 5 min) was 29 ± 10 µM (≈ 13.7 µg/mL). The CC50 in “in vitro” was more than 50 µM. Moreover, the “Amplification factors (DCL-4)” value on MtbIspE [1] came out at 2.3. Besides, the “MtbIspE binding at 20 μM” value at MtbIspE [2] is “No”. The inhibition at 50 µM with EcTolC was less than 10%. In data set [3], the “solubility in 7H9” value is recorded as “insoluble”. For the same molecule, the ΔTm at 20 µM on MtbIspE [4] is 0.7 °C.

In “physchem”, `COc1ccc(NC(=O)c2cc(C(=O)N/N=C/c3cc(Cl)ccc3O)n(C)n2)cc1OC` [H1, (E)-5-(2-(5-Chloro-2-hydroxybenzylidene)hydrazine-1-carbonyl)-N-(3,4-dimethoxyphenyl)-1-methyl-1H-pyrazole-3-carboxamide] had a solubility at 5 min of 28 ± 6 µM (≈ 12.8 µg/mL). The CC50 in the data set “in vitro” turned out to be 32 ± 5 µM. At MtbIspE [1], the “Amplification factors (DCL-3)” value is reported as 7.8. Further, the “MtbIspE binding at 20 μM” value at MtbIspE [2] was “No”. Besides, the inhibition at 50 µM in the data set with EcTolC is less than 10%. For the same molecule, in data set [3], the solubility stood at 32 µM. The ΔTm at 20 µM at MtbIspE [4] was less than 0.3 °C. Further, the “MtbH37Rv MIC90” value in the data set with MtbH37Rv is listed as “no inh. at max. sol”.

As to `O=C(N/N=C/c1cc(Cl)ccc1O)C12CC3CC(C1)CC(n1cnc(Cl)n1)(C3)C2` [I1, (1R,3S,5R,7S)-3-(3-Chloro-1H-1,2,4-triazol-1-yl)-N′-((Z)-5-chloro-2-hydroxybenzylidene)adamantane-1-carbohydrazide], the solubility at 5 min in “physchem” is 8 ± 4 µM (≈ 3.47 µg/mL). For the same molecule, the “Amplification factors (DCL-3)” value at MtbIspE [1] stood at 2.0. For the same molecule, the inhibition at 50 µM in the data set with EcTolC was 33 ± 3%; in the data set on EcK12, less than 10%. Besides, the solubility in data set [3] came out at 64 µM. Also, the “MtbH37Rv MIC90” value in the data set with MtbH37Rv was “no inh. at max. sol”.

For orientation: solubility means how much of the substance goes into solution per volume. One may read the ΔTm as the shift of the melting midpoint relative to a reference.
